In article PMC5845353, “The selective cathepsin K inhibitor MIV-711 attenuates joint pathology in experimental animal models of osteoarthritis” (Journal of Translational Medicine, 2018):

Test system: rabbits subjected to anterior cruciate ligament transection (ACLT)
Test: Rabbit ACLT study, histomorphometry of bone, cartilage and osteophytes
Assay type: in vivo
Method: The femora and tibias were decalcified, embedded in paraffin, sectioned at 5-7 µm at two different levels separated by approximately 2 mm, and stained with safranin O and toluidine blue.
Both tibial plateaus and femoral condyles (i.e. four joint compartments) were also subjected to histomorphometric analysis of cartilage, subchondral bone, cancellous bone, and osteophytes. The measurements were made using OsteoMeasureXP version 3.3.0.2 as follows:
Uncalcified cartilage area was measured by tracing the articular surface (cartilage perimeter) and bone or calcified cartilage/uncalcified cartilage interface (cartilage boundary).
Cartilage width was measured by point to point measurement at intersections between a sampling grid with approximately 0.5 mm spacing and the cartilage boundary. The intercepts measured were orthogonal to the cartilage boundary and ended at the cartilage perimeter. At intersections where the cartilage width was zero due to erosion, a value of zero was recorded.
Subchondral bone width was measured by point to point measurement at intersections between a sampling grid with approximately 0.5 mm spacing and the cartilage boundary. The intercepts measured were orthogonal to the cartilage boundary and ended at the first marrow cavity encountered that had at least one dimension approximately equivalent to nearby trabecular thickness.
Osteophyte area was measured for abaxial osteophytes. On the femur, osteophytes associated with the condyles but not with the trochlear grooves were measured.
Bone area (including osteoid) and perimeter were measured in a 3.8 X 1.5 mm ROI centered approximately 1 mm below the bone/cartilage interface. This ROI was intended to be equivalent to the subchondral cancellous bone VOI measured by microCT. Bone volume (BV/TV), trabecular thickness (Tb.Th), trabecular number (Tb.N) and trabecular separation (Tb.Sp) were derived from these measurements using standard formulae.
Slides were evaluated in animal ID order, i.e. in random order with respect to treatment, so that the measurer was effectively blinded to treatment assignment.
Analysis was performed on all four condyles at two levels (Level 1 and 2) for each condyle:
Group 1) sham + vehicle; Group 2) ACLT + vehicle; Group 3) ACLT + MIV-711, 30 µmol/kg (low dose) and Group 4) ACLT + MIV-711, 100 µmol/kg (high dose).

[1] = Level 2, MFC, Group 3: ACLT + MIV-711, 30 µmol/kg (low dose)
[2] = Level 2, MFC, Group 4: ACLT + MIV-711, 100 µmol/kg (high dose)
[3] = Level 2, MTP, Group 3: ACLT + MIV-711, 30 µmol/kg (low dose)
[4] = Level 2, MTP, Group 4: ACLT + MIV-711, 100 µmol/kg (high dose)

## C#C[C@@H]1CN(C(=O)[C@H](CC(C)C)NC(=O)c2ccc(-c3nc(N4CCN(C)CC4)sc3F)cc2)[C@@H]2C(=O)CO[C@H]12 [MIV-711]
Level 1 MFC, Group 4, ACLT + MIV-711 100 µmol/kg
  Tb.Th, Median: 161.50 µm
Level 2, LFC, Group 3
  BV/TV, Mean: 36.23%
  BV/TV, Median: 35.15%
  Cart.Ar, Mean: 1.54 mm2
  Cart.Ar, Median: 1.50 mm2
  Cart.Bd, Mean: 5.95 mm
  Cart.Bd, Median: 5.45 mm
  Cart.Pm, Mean: 6.68 mm
  Cart.Pm, Median: 6.07 mm
  Cart.Wi, Mean: 252.24 µm
  Cart.Wi, Median: 265.00 µm
  Ophte.Ar, Mean: 1.80 mm2
  Ophte.Ar, Median: 1.91 mm2
  SCB.Wi, Mean: 625.26 µm
  SCB.Wi, Median: 686.73 µm
  Tb.N, Mean: 2.86 1/mm
  Tb.N, Median: 3.01 1/mm
  Tb.Sp, Mean: 227.32 µm
  Tb.Sp, Median: 224.93 µm
  Tb.Th, Mean: 129.54 µm
  Tb.Th, Median: 124.26 µm
Level 2, LFC, Group 4
  BV/TV, Mean: 36.75%
  BV/TV, Median: 38.04%
  Cart.Ar, Mean: 1.69 mm2
  Cart.Ar, Median: 1.76 mm2
  Cart.Bd, Mean: 7.36 mm
  Cart.Bd, Median: 7.45 mm
  Cart.Pm, Mean: 8.13 mm
  Cart.Pm, Median: 8.16 mm
  Cart.Wi, Mean: 223.79 µm
  Cart.Wi, Median: 238.09 µm
  Ophte.Ar, Mean: 4.60 mm2
  Ophte.Ar, Median: 1.57 mm2
  SCB.Wi, Mean: 500.70 µm
  SCB.Wi, Median: 462.81 µm
  Tb.N, Mean: 3.05 1/mm
  Tb.N, Median: 2.97 1/mm
  Tb.Sp, Mean: 212.50 µm
  Tb.Sp, Median: 210.44 µm
  Tb.Th, Mean: 120.73 µm
  Tb.Th, Median: 120.14 µm
Level 2, LTP, Group 3
  BV/TV, Mean: 42.02%
  BV/TV, Median: 40.17%
  Cart.Ar, Mean: 0.88 mm2
  Cart.Ar, Median: 0.95 mm2
  Cart.Bd, Mean: 4.27 mm
  Cart.Bd, Median: 4.41 mm
  Cart.Pm, Mean: 4.26 mm
  Cart.Pm, Median: 4.48 mm
  Cart.Wi, Mean: 207.98 µm
  Cart.Wi, Median: 203.75 µm
  Ophte.Ar, Mean: 1.40 mm2
  Ophte.Ar, Median: 1.23 mm2
  SCB.Wi, Mean: 531.17 µm
  SCB.Wi, Median: 547.82 µm
  Tb.N, Mean: 2.93 1/mm
  Tb.N, Median: 3.04 1/mm
  Tb.Sp, Mean: 202.17 µm
  Tb.Sp, Median: 206.70 µm
  Tb.Th, Mean: 146.36 µm
  Tb.Th, Median: 148.82 µm
Level 2, LTP, Group 4
  BV/TV, Mean: 39.84%
  BV/TV, Median: 38.48%
  Cart.Ar, Mean: 1.20 mm2
  Cart.Ar, Median: 1.00 mm2
  Cart.Bd, Mean: 4.73 mm
  Cart.Bd, Median: 4.37 mm
  Cart.Pm, Mean: 5.10 mm
  Cart.Pm, Median: 4.58 mm
  Cart.Wi, Mean: 263.50 µm
  Cart.Wi, Median: 255.71 µm
  Ophte.Ar, Mean: 1.37 mm2
  Ophte.Ar, Median: 1.37 mm2
  SCB.Wi, Mean: 559.05 µm
  SCB.Wi, Median: 594.94 µm
  Tb.N, Mean: 2.47 1/mm
  Tb.N, Median: 2.50 1/mm
  Tb.Sp, Mean: 250.77 µm
  Tb.Sp, Median: 246.02 µm
  Tb.Th, Mean: 161.80 µm
  Tb.Th, Median: 153.89 µm
Level 2, MFC, Group 3
  BV/TV, Mean: 50.84%
  BV/TV, Median: 46.53%
[1]
  Cart.Ar, Mean: 1.47 mm2
  Cart.Ar, Median: 1.46 mm2
  Cart.Bd, Mean: 6.28 mm
  Cart.Bd, Median: 6.09 mm
  Cart.Pm, Mean: 6.91 mm
  Cart.Pm, Median: 6.73 mm
  Cart.Wi, Mean: 223.23 µm
  Cart.Wi, Median: 234.59 µm
  Ophte.Ar, Mean: 2.89 mm2
  Ophte.Ar, Median: 3.00 mm2
  SCB.Wi, Mean: 694.43 µm
  SCB.Wi, Median: 608.27 µm
  Tb.N, Mean: 2.80 1/mm
  Tb.N, Median: 2.86 1/mm
  Tb.Sp, Mean: 174.68 µm
  Tb.Sp, Median: 185.17 µm
  Tb.Th, Mean: 189.67 µm
  Tb.Th, Median: 161.11 µm
Level 2, MFC, Group 4
  BV/TV, Mean: 43.61%
  BV/TV, Median: 41.52%
[2]
  Cart.Ar, Mean: 1.41 mm2
  Cart.Ar, Median: 1.41 mm2
  Cart.Bd, Mean: 6.12 mm
  Cart.Bd, Median: 6.18 mm
  Cart.Pm, Mean: 6.67 mm
  Cart.Pm, Median: 6.55 mm
  Cart.Wi, Mean: 222.96 µm
  Cart.Wi, Median: 218.64 µm
  Ophte.Ar, Mean: 2.78 mm2
  Ophte.Ar, Median: 2.43 mm2
  SCB.Wi, Mean: 570.45 µm
  SCB.Wi, Median: 510.39 µm
  Tb.N, Mean: 3.01 1/mm
  Tb.N, Median: 3.07 1/mm
  Tb.Sp, Mean: 189.22 µm
  Tb.Sp, Median: 197.91 µm
  Tb.Th, Mean: 144.65 µm
  Tb.Th, Median: 140.49 µm
[3]
  BV/TV, Mean: 39.18%
  BV/TV, Median: 39.13%
  Cart.Ar, Mean: 0.74 mm2
  Cart.Ar, Median: 0.67 mm2
  Cart.Bd, Mean: 2.32 mm
  Cart.Bd, Median: 2.31 mm
  Cart.Pm, Mean: 2.43 mm
  Cart.Pm, Median: 2.27 mm
  Cart.Wi, Mean: 312.01 µm
  Cart.Wi, Median: 270.73 µm
  Ophte.Ar, Mean: 5.73 mm2
  Ophte.Ar, Median: 3.43 mm2
  SCB.Wi, Mean: 747.49 µm
  SCB.Wi, Median: 739.43 µm
  Tb.N, Mean: 2.37 1/mm
  Tb.N, Median: 2.27 1/mm
  Tb.Sp, Mean: 257.90 µm
  Tb.Sp, Median: 251.22 µm
  Tb.Th, Mean: 166.79 µm
  Tb.Th, Median: 176.63 µm
[4]
  BV/TV, Mean: 33.87%
  BV/TV, Median: 33.99%
  Cart.Ar, Mean: 1.78 mm2
  Cart.Ar, Median: 0.71 mm2
  Cart.Bd, Mean: 2.50 mm
  Cart.Bd, Median: 2.18 mm
  Cart.Pm, Mean: 2.70 mm
  Cart.Pm, Median: 2.14 mm
  Cart.Wi, Mean: 282.89 µm
  Cart.Wi, Median: 257.34 µm
  Ophte.Ar, Mean: 10.32 mm2
  Ophte.Ar, Median: 6.59 mm2
  SCB.Wi, Mean: 575.52 µm
  SCB.Wi, Median: 691.04 µm
  Tb.N, Mean: 2.15 1/mm
  Tb.N, Median: 1.97 1/mm
  Tb.Sp, Mean: 317.92 µm
  Tb.Sp, Median: 313.76 µm
  Tb.Th, Mean: 160.02 µm
  Tb.Th, Median: 151.52 µm
